Assay results published in patent publication US4826982A, “Quinolonecarboxylic acid derivatives” (Kyorin Pharmaceutical Co., Ltd., priority 1985, dated 1989).
Values after ≈ are worked out from the molar mass of the structure shown. Where two headings read alike, the source gives them in different places.

Tests used:
F. varium KYA 8501 = experiment: Antibacterial spectrum, MIC; type: cell-based; settings: Fusobacterium varium, KYA8501
[1] = system: Bacteroides fragilis GM 7000; experiment: Antibacterial spectrum, MIC; settings: GM7000
[2] = system: Pseudomonas aeruginosa V-1; experiment: Antibacterial spectrum, MIC; settings: V1
[3] = system: Propionibacterium acens 11828; experiment: Antibacterial spectrum, MIC; type: cell-based
[4] = system: Peptostreptococcus anaerobius KYA 27337; experiment: Antibacterial spectrum, MIC; type: cell-based
P. aeruginosa IFO 12689 = experiment: microbe, parasite or virus in culture; settings: Pseudomonas aeruginosa, IFO12689
Pst. micros UPI 5464-1 = experiment: Antibacterial spectrum, MIC; settings: Parvimonas micra, UPI54641
[5] = system: Eubacterium lentum GAI 5242; experiment: microbe, parasite or virus in culture; settings: Eggerthella lenta, GAI5242
[6] = system: Clostridium perfringens KYA 13123; experiment: microbe, parasite or virus in culture; settings: KYA13123
S. pyogenes IID 692 = experiment: microbe, parasite or virus in culture; settings: Streptococcus pyogenes, IID692
[7] = system: Morganella morganii IID 602; experiment: Antibacterial spectrum, MIC; type: cell-based; settings: IID602
[8] = system: B. thetaiotaomicron (0661); experiment: Antibacterial spectrum, MIC; type: cell-based; settings: Bacteroides thetaiotaomicron; 10^6 cells/ml; Gram -; standard strain; read-out: MIC
[9] = system: Bacillus subtilis PCI 219; experiment: Antibacterial spectrum, MIC by method recommended by Japan Society of Chemotherapy; type: cell-based; settings: PCI219, 10^6 cells/ml, Gram +, standard strain
Excerpt: (§1) In vitro antibacterial activity (standard strains)
(§2) Organism (10^6 cells/ml)

[10] = system: Yersinia enterocolitica IID 981; experiment: microbe, parasite or virus in culture; type: cell-based; settings: IID981
[11] = system: Veillonella parvula KYA 10790; experiment: Antibacterial spectrum, MIC; settings: KYA10790
C. ramosum = experiment: Antibacterial spectrum, MIC; type: cell-based; settings: Thomasclavelia ramosa; 10^6 cells/ml; Gram +; standard strain; read-out: MIC
[12] = system: Staphylococcus aureus 209 P; experiment: Antibacterial spectrum, MIC; type: cell-based; settings: 10^6 cells/ml, Gram +, standard strain
Excerpt: as §1, §2

P. mirabilis IID 994 = experiment: Antibacterial spectrum, MIC; type: cell-based; settings: Proteus mirabilis, IID994; 10^6 cells/ml; Gram -; standard strain
Excerpt: as §1, §2

S. epidermidis IID 866 = experiment: Antibacterial spectrum, MIC; type: cell-based; settings: Staphylococcus epidermidis, IID866; 10^6 cells/ml; Gram +; standard strain
Excerpt: as §1, §2

[13] = system: Acinetobacter anitratus IID 876; experiment: Antibacterial spectrum, MIC; type: cell-based; settings: Acinetobacter calcoaceticus, IID876; 10^6 cells/ml; Gram -; standard strain
Excerpt: as §1, §2

B. distasonis 8503 = experiment: Antibacterial spectrum, MIC; type: cell-based; settings: Parabacteroides distasonis, 10^6 cells/ml, Gram -, standard strain
Excerpt: as §1, §2

K. pneumoniae 1-220S = experiment: Antibacterial spectrum, MIC; type: cell-based; settings: Klebsiella pneumoniae, 1220S; 10^6 cells/ml; Gram -; standard strain
Excerpt: as §1, §2

[14] = system: Serratia marcescens IID 618; experiment: Antibacterial spectrum, MIC; type: cell-based; settings: IID618, 10^6 cells/ml, Gram -, standard strain
Excerpt: as §1, §2

[15] = system: Fusobacterium necrophorum S-45; experiment: Antibacterial spectrum, MIC; type: cell-based; settings: S45, 10^6 cells/ml, Gram -, standard strain
Excerpt: as §1, §2

B. fragilis 25285 = experiment: Antibacterial spectrum, MIC; type: cell-based; settings: Bacteroides fragilis, 10^6 cells/ml, Gram -, standard strain
Excerpt: as §1, §2

Shigella sonnei IID 969 = experiment: Antibacterial spectrum, MIC; type: cell-based; settings: IID969, 10^6 cells/ml, Gram -, standard strain
Excerpt: as §1, §2

E. faecalis IID 682 = experiment: Antibacterial spectrum, MIC; type: cell-based; settings: Enterococcus faecalis, IID682; 10^6 cells/ml; Gram +; standard strain
Excerpt: as §1, §2

[16] = system: Citrobacter freundii IID 976; experiment: Antibacterial spectrum, MIC; type: cell-based; settings: IID976, 10^6 cells/ml, Gram -, standard strain
Excerpt: as §1, §2

[17] = system: Alcaligenes faecalis 0114002; experiment: Antibacterial spectrum, MIC; type: cell-based; settings: 10^6 cells/ml, Gram -, standard strain
Excerpt: as §1, §2

[18] = system: Klebsiella pneumoniae KY(GN)6445; experiment: Antibacterial spectrum, MIC; type: cell-based; settings: 10^6 cells/ml, Gram -, standard strain
Excerpt: as §1, §2

S. pneumoniae IID 552 = experiment: Antibacterial spectrum, MIC; type: cell-based; settings: Streptococcus pneumoniae, IID552; 10^6 cells/ml; Gram +; standard strain
Excerpt: as §1, §2

B. fragilis 0558 = experiment: Antibacterial spectrum, MIC; type: cell-based; settings: Bacteroides fragilis, 10^6 cells/ml, Gram -, standard strain
Excerpt: as §1, §2

[19] = system: Salmonella enteritidis IID 604; experiment: Antibacterial spectrum, MIC; type: cell-based; settings: Salmonella enterica; 10^6 cells/ml; Gram -; standard strain
Excerpt: as §1, §2

[20] = system: S. aureus IID 670 (Terajima); experiment: Antibacterial spectrum, MIC; type: cell-based; settings: Staphylococcus aureus, IID670; 10^6 cells/ml; Gram +; standard strain
Excerpt: as §1, §2

[21] = system: Streptococcus pyogenes (S-8); experiment: Antibacterial spectrum, MIC; type: cell-based; settings: 10^6 cells/ml, Gram +, standard strain
Excerpt: as §1, §2

E. coli ATCC l0536 = experiment: Antibacterial spectrum, MIC; type: cell-based; settings: Escherichia coli, ATCCL0536
Excerpt: as §1, §2

[22] = system: Proteus vulgaris IFO 3167; experiment: Antibacterial spectrum, MIC; type: cell-based; settings: IFO3167, 10^6 cells/ml, Gram -, standard strain
Excerpt: as §1, §2

[23] = system: Enterobacter cloacae IID 977; experiment: Antibacterial spectrum, MIC; type: cell-based; settings: IID977, 10^6 cells/ml, Gram -, standard strain
Excerpt: as §1, §2

[24] = system: Escherichia coli NIHJ JC-2; experiment: Antibacterial spectrum, MIC; type: cell-based; settings: NIHJJC2, 10^6 cells/ml, Gram -, standard strain
Excerpt: as §1, §2

[25] = system: Peptococcus magnus KY 017; experiment: microbe, parasite or virus in culture; settings: Finegoldia magna, KY017

Structure (SMILES)	MIC [1] [µg/mL]	MIC [2] [µg/mL]	MIC (P. aeruginosa IFO 12689) [µg/mL]	MIC (Pst. micros UPI 5464-1) [µg/mL]	MIC [5] [µg/mL]	MIC [6] [µg/mL]	MIC (S. pyogenes IID 692) [µg/mL]	MIC [7] [µg/mL]	MIC [8] [µg/mL]	MIC [11] [µg/mL]	MIC [12] [µg/mL]	MIC (S. epidermidis IID 866) [µg/mL]	MIC [13] [µg/mL]	MIC (B. distasonis 8503) [µg/mL]	MIC (K. pneumoniae 1-220S) [µg/mL]	MIC (B. fragilis 25285) [µg/mL]	MIC (Shigella sonnei IID 969) [µg/mL]	MIC (B. fragilis 0558) [µg/mL]	MIC [20] [µg/mL]	MIC [24] [µg/mL]	also measured
CC1CN(c2c(F)cc3c(=O)c(C(=O)O)cn(C4CC4)c3c2Br)CCN1.Cl (stereo not shown) [Exp. 18, 8-Bromo-1-cyclopropyl-6-fluoro-1,4-dihydro-7-(3-methyl-1-piperazinyl)-4-oxo-3-quinolinecarboxylic acid hydrochloride]	0.78	0.39	3.13	0.39	0.39	0.78	0.78	0.1	1.56	0.39	0.1	0.2	0.05	1.56	0.1	0.39	0.025	0.39	0.2	0.0125	MIC (F. varium KYA 8501): 3.13 µg/mL; MIC ([3]; 10^6 cells/ml, Gram +, standard strain, read-out: MIC): 6.25 µg/mL; MIC ([4]; KYA27337, 10^6 cells/ml, Gram +, standard strain, read-out: MIC): 1.56 µg/mL; MIC [9]: 0.05 µg/mL; MIC [10]: 0.1 µg/mL; MIC (C. ramosum): 6.25 µg/mL; MIC (P. mirabilis IID 994): 0.025 µg/mL; MIC [14]: 0.1 µg/mL; MIC [15]: 0.78 µg/mL; MIC (E. faecalis IID 682): 0.78 µg/mL; MIC [16]: 0.05 µg/mL; MIC [17]: 0.39 µg/mL; MIC [18]: 0.05 µg/mL; MIC (S. pneumoniae IID 552): 0.78 µg/mL; MIC [19]: 0.05 µg/mL; MIC [21]: 0.78 µg/mL; MIC (E. coli ATCC l0536): 0.025 µg/mL; MIC [22]: 0.025 µg/mL; MIC [23]: 0.1 µg/mL; MIC [25]: 0.39 µg/mL
O=C(O)c1cn(C2CC2)c2cc(N3CCNCC3)c(F)cc2c1=O [CPFX, ciprofloxacin, reference compound]	6.25 (≈ 18.9 µM)	0.05 (≈ 0.151 µM)		0.2 (≈ 0.604 µM)						0.2 (≈ 0.604 µM)	0.2 (≈ 0.604 µM)	0.2 (≈ 0.604 µM)	0.2 (≈ 0.604 µM)	6.25 (≈ 18.9 µM)	0.05 (≈ 0.151 µM)	6.25 (≈ 18.9 µM)	0.0063 (≈ 0.019 µM)	3.13 (≈ 9.45 µM)	0.2 (≈ 0.604 µM)	≤ 0.0063	
CC1COc2c(N3CCN(C)CC3)c(F)cc3c(=O)c(C(=O)O)cn1c23 (stereo not shown) [OFLX, ofloxacin, reference compound]	3.13 (≈ 8.66 µM)	0.39 (≈ 1.08 µM)	3.13 (≈ 8.66 µM)	0.78 (≈ 2.16 µM)	0.78 (≈ 2.16 µM)	0.78 (≈ 2.16 µM)	3.13 (≈ 8.66 µM)	0.1 (≈ 0.277 µM)	6.25 (≈ 17.3 µM)	0.78 (≈ 2.16 µM)	0.2 (≈ 0.553 µM)	0.39 (≈ 1.08 µM)	0.2 (≈ 0.553 µM)	6.25 (≈ 17.3 µM)	0.2 (≈ 0.553 µM)	1.56 (≈ 4.32 µM)	0.05 (≈ 0.138 µM)	1.56 (≈ 4.32 µM)	0.39 (≈ 1.08 µM)	≤ 0.025	MIC (F. varium KYA 8501; 10^6 cells/ml, Gram -, standard strain, read-out: MIC): 12.5 µg/mL (≈ 34.6 µM); MIC [3]: 12.5 µg/mL (≈ 34.6 µM); MIC ([4]; KYA27337): 3.13 µg/mL (≈ 8.66 µM); MIC [9]: 0.1 µg/mL (≈ 0.277 µM); MIC [10]: 0.2 µg/mL (≈ 0.553 µM); MIC (C. ramosum): 12.5 µg/mL (≈ 34.6 µM); MIC (P. mirabilis IID 994): 0.05 µg/mL (≈ 0.138 µM); MIC [14]: 0.1 µg/mL (≈ 0.277 µM); MIC [15]: 1.56 µg/mL (≈ 4.32 µM); MIC (E. faecalis IID 682): 1.56 µg/mL (≈ 4.32 µM); MIC [16]: 0.1 µg/mL (≈ 0.277 µM); MIC [17]: 0.78 µg/mL (≈ 2.16 µM); MIC [18]: 0.05 µg/mL (≈ 0.138 µM); MIC (S. pneumoniae IID 552): 1.56 µg/mL (≈ 4.32 µM); MIC [19]: 0.1 µg/mL (≈ 0.277 µM); MIC [21]: 1.56 µg/mL (≈ 4.32 µM); MIC (E. coli ATCC l0536): 0.05 µg/mL (≈ 0.138 µM); MIC [22]: 0.05 µg/mL (≈ 0.138 µM); MIC [23]: 0.1 µg/mL (≈ 0.277 µM); MIC [25]: 0.78 µg/mL (≈ 2.16 µM)
